Test results published in patent US20030125387A1 (priority 2000, published 2003).
In brackets after ≈: the same amount, converted by molar mass. Where two headings read alike, the source gives them in different places.

Assays:
[1] = Studies using 14C labelled benzyl alcohol: dissipation from injection site and removal from body; format: in vivo
hypothalamic ER = conditions: in vivo; cited from earlier work
[2] = Solubility of fulvestrant in different solvents at 25° C. (Table 2); format: physicochemical
uterus = conditions: intact adult rats, cited from earlier work
[3] = Effect of benzyl benzoate on fulvestrant solubility in castor oil at 25°C (Table 3); format: physicochemical
[4] = Solubility of fulvestrant in oil based formulations with and without alcohols (Table 4); format: physicochemical; conditions: 25 °C, oil or lipid
[5] = system: uterotrophic action of oestradiol; conditions: rats; cited from earlier work
[6] = system: uterotrophic action of oestradiol; conditions: mice; cited from earlier work
[7] = system: uterotrophic action of oestradiol; conditions: monkeys; cited from earlier work
[8] = Aqueous solubility of fulvestrant, estimate from a water/solvent mixture; format: physicochemical; conditions: estimate from a water/solvent mixture solute
[9] = in vivo; cited from earlier work
[10] = system: human breast cancer cells; conditions: human breast cancer cells in vitro; cited from earlier work

OCc1ccccc1 [benzyl alcohol]
dissipation from the injection site [1]: dissipates rapidly | time to removal from the body after administration [1]: ≤ 24 h

C[C@]12CC[C@@H]3c4ccc(O)cc4C[C@@H](CCCCCCCCC[S+]([O-])CCCC(F)(F)C(F)(F)F)[C@H]3[C@@H]1CC[C@@H]2O (stereo partly drawn) [fulvestrant, 7α-[9-(4,4,5,5,5-Pentafluoropentylsulphinyl)nonyl]oestra-1,3-5(10)-triene-3,17β-diol]
block of hypothalamic ER (hypothalamic ER): does not block | solubility ([2]; solvent Arachis oil, 25° C.): 0.45 mgml^−1 | solubility ([2]; solvent Benzyl Alcohol, 25° C.): >200 mgml^−1 | solubility ([2]; solvent Benzyl benzoate, 25° C.): 6.15 mgml^−1 | solubility ([2]; solvent Castor oil, 25° C.): 20 mgml^−1 | solubility ([2]; solvent Ethanol, 25° C.): >200 mgml^−1 | solubility ([2]; solvent Ethyl oleate, 25° C.): 1.25 mgml^−1 | solubility ([2]; solvent Isopropyl myristate, 25° C.): 0.80 mgml^−1 | solubility ([2]; solvent Miglyol 810, 25° C.): 3.06 mgml^−1 | solubility ([2]; solvent Miglyol 812, 25° C.): 2.72 mgml^−1 | solubility ([2]; solvent Sesame oil, 25° C.): 0.58 mgml^−1 | solubility ([2]; solvent Span 85 (surfactant), 25° C.): 3.79 mgml^−1 | solubility ([2]; solvent Water, 25° C., read-out: SOLUBILITY): 0.001 mg/mL (≈ 0.00165 mM) | effect on bone density and gonadotrophin secretion (uterus; at the dose achieving maximum regression of the uterus): does not adversely affect bone density or lead to increased gonadotrophin secretion | regression of the uterus (uterus): maximum regression of the uterus | Fulvestrant Solubility ([3]; % w/v: ethanol (96%) 5, benzyl alcohol 5, benzyl benzoate 15, castor oil to 100): 36 mgml^−1 | Fulvestrant Solubility ([3]; % w/v: ethanol (96%) 5, benzyl alcohol 5, no benzyl benzoate, castor oil to 100): 27 mgml^−1 | Fulvestrant Solubility ([3]; % w/v: ethanol (96%) 10, benzyl alcohol 5, benzyl benzoate 15, castor oil to 100): 54 mgml^−1 | Fulvestrant Solubility ([3]; % w/v: ethanol (96%) 10, benzyl alcohol 5, no benzyl benzoate, castor oil to 100): 46 mgml^−1 | Fulvestrant Solubility ([3]; % w/v: ethanol (96%) 10, benzyl alcohol 10, benzyl benzoate 15, castor oil to 100): 65 mgml^−1 | Fulvestrant Solubility ([3]; % w/v: ethanol (96%) 10, benzyl alcohol 10, no benzyl benzoate, castor oil to 100): 45 mgml^−1 | Fulvestrant Solubility ([3]; % w/v: ethanol (96%) 15, benzyl alcohol 15, benzyl benzoate 15, castor oil to 100): 102 mgml^−1 | Fulvestrant Solubility ([3]; % w/v: ethanol (96%) 15, benzyl alcohol 15, no benzyl benzoate, castor oil to 100): 76 mgml^−1 | solubility [4]: 70.1 mg/mL (≈ 116 mM) | solubility ([4]; Fulvestrant Solubility, Vehicle minus alcohols, Sesame seed oil based, alcohols removed): 0.7 mg/mL (≈ 1.15 mM) | solubility ([4]; Fulvestrant Solubility, Vehicle minus alcohols, Sesame seed/Castor oil (1:1) based, alcohols removed, 25° C.): 4.4 mg/mL (≈ 7.25 mM) | solubility ([4]; Arachis oil based oil formulation, complete vehicle, Fulvestrant Solubility, Arachis oil based, ethanol [96%] (10%), benzyl alcohol (10%), benzyl benzoate (15%), oil to volume): 40.2 mg/mL (≈ 66.3 mM) | solubility ([4]; Arachis oil based oil formulation, vehicle minus alcohols, Fulvestrant Solubility, Arachis oil based, alcohols removed): < 0.2 mg/mL | solubility ([4]; Castor oil based oil formulation, complete vehicle, Fulvestrant Solubility, Castor oil based, ethanol [96%] (10%), benzyl alcohol (10%), benzyl benzoate (15%), oil to volume): 81.2 mg/mL (≈ 134 mM) | solubility ([4]; Castor oil based oil formulation, vehicle minus alcohols, Fulvestrant Solubility, Castor oil based, alcohols removed): 12.6 mg/mL (≈ 20.8 mM) | solubility ([4]; Miglyol 812-N based oil formulation, complete vehicle, Fulvestrant Solubility, Miglyol 812-N based, ethanol [96%] (10%), benzyl alcohol (10%), benzyl benzoate (15%), oil to volume): 86.8 mg/mL (≈ 143 mM) | solubility ([4]; Miglyol 812-N based oil formulation, vehicle minus alcohols, Fulvestrant Solubility, Miglyol 812-N based, alcohols removed): 1.7 mg/mL (≈ 2.8 mM) | solubility ([4]; Sesame seed oil based oil formulation, complete vehicle, Fulvestrant Solubility, Sesame seed oil based, ethanol [96%] (10%), benzyl alcohol (10%), benzyl benzoate (15%), oil to volume): 45.7 mg/mL (≈ 75.3 mM) | block of uterotrophic action of oestradiol [5]: blocks completely | block of uterotrophic action of oestradiol [6]: blocks completely | block of uterotrophic action of oestradiol [7]: blocks completely | aqueous solubility [8]: around 10 ngml^−1 | crossing of the blood-brain barrier [9]: does not cross the blood-brain barrier | block of growth stimulatory action of oestradiol [10]: completely blocks | potency and effectiveness compared with tamoxifen [10]: more potent and more effective than tamoxifen
